Experimental data as given in ChEMBL document CHEMBL3108676, “Discovery of a Novel Class of Imidazo[1,2-a]Pyridines with Potent PDGFR Activity and Oral Bioavailability” (ACS Med Chem Lett, 2014).
In brackets after ≈: the same amount, converted by molar mass. Activity calls are given as the source filed them. No cut-off for these calls is given here.

Tests used:
[1] = biological target: Macrophage colony-stimulating factor 1 receptor (Homo sapiens, UniProt P07333)
Description: Inhibition of cFMS (unknown origin)

[2] = biological target: T1, Platelet-derived growth factor receptor beta (Mus musculus, UniProt P05622); test: Inhibition of PDGF-induced PDGFRbeta phosphorylation in mouse NIH3T3 cells incubated for 1 hr prior to PDGF induction measured after 15 mins by fluorescence assay; type: cell-based
Cytochrome P450 2D6 = Cytochrome P450 2D6 (Homo sapiens, UniProt P10635); test: Inhibition of CYP2D6 (unknown origin); type: ADME
Cytochrome P450 1A2 = biological target: T2, Cytochrome P450 1A2 (Homo sapiens, UniProt P05177); test: Inhibition of CYP1A2 (unknown origin); type: ADME
T2 sequence (P05177 whole entry): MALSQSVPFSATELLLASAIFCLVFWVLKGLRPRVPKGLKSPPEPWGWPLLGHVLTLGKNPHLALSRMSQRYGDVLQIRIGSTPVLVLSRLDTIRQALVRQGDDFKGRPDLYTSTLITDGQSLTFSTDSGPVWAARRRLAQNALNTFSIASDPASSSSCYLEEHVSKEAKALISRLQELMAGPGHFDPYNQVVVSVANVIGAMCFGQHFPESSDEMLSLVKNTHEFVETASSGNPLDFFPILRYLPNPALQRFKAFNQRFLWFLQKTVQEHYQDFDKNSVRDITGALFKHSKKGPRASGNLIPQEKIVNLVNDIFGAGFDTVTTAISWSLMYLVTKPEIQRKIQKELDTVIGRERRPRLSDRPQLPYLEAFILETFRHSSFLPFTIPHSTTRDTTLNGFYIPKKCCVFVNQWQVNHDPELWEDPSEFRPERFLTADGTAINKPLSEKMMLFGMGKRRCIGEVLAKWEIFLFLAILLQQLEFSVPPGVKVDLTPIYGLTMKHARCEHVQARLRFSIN

[3] = biological target: T1, Platelet-derived growth factor receptor beta; test: Inhibition of PDGF-induced PDGFRbeta phosphorylation in mouse NIH3T3 cells incubated for 1 hr prior to PDGF induction measured after 15 mins by fluorescence assay in presence of 50% human plasma; type: cell-based
Cytochrome P450 2C19 = Cytochrome P450 2C19 (Homo sapiens, UniProt P33261); test: Inhibition of CYP2C19 (unknown origin); type: ADME
Cytochrome P450 3A4 = Cytochrome P450 3A4 (Homo sapiens, UniProt P08684); test: Inhibition of CYP3A4 (unknown origin); type: ADME
[4] = biological target: Mast/stem cell growth factor receptor Kit (Homo sapiens, UniProt P10721); test: Inhibition of cKIT (unknown origin)
[5] = Solubility of the compound; type: physicochemical
[6] = (§1) AUC in rat at 10 mg/kg, po; type: ADME, organism-based, Plasma; design: dose 10 mg/kg, route oral; settings: plasma
Cytochrome P450 2C9 = Cytochrome P450 2C9 (Homo sapiens, UniProt P11712); test: Inhibition of CYP2C9 (unknown origin); type: ADME
MDR1 = test: Apparent permeability across apical to basolateral side in pig LLC-PK1 cells expressing MDR1 assessed as compound recovery; type: ADME, cell-based, Sus scrofa; settings: read-out: Papp
[7] = (§2) Oral bioavailability in rat at 10 mg/kg; type: ADME, organism-based; settings: in vivo
[8] = Clearance in rat at 1 mg/kg, iv; type: ADME, organism-based; design: dose 1 mg/kg, route intravenous; settings: in vivo
[9] = (§3) Cmax in rat at 10 mg/kg, po; type: ADME, organism-based; design: dose 10 mg/kg, route oral; settings: in vivo
[10] = Dissociation constant, pKa of the compound; type: physicochemical
[11] = (§4) Apparent permeability across apical to basolateral side in pig LLC-PK1 cells; type: ADME, cell-based, Sus scrofa; settings: LLC-PK1
Mus musculus [12] = test: In vivo inhibition of PDGFR phosphorylation in tumor of nu/nu nude mouse xenografted with rat C6 cells administered as po qd after 2 to 6 hrs; type: functional, organism-based
[13] = Oral bioavailability in cynomolgus monkey at 30 mg/kg; type: ADME, organism-based, Macaca fascicularis; settings: in vivo
[14] = biological target: Voltage-gated inwardly rectifying potassium channel KCNH2 (Homo sapiens, UniProt Q12809); test: Inhibition of human ERG
Rattus norvegicus [15] = test: Toxicity in rat up to 50 mg/kg, po bid administered for 2 weeks; type: organism-based; design: dose 50 mg/kg, route oral; settings: in vivo, 336 h
[16] = AUC in cynomolgus monkey at 30 mg/kg, po; type: ADME, organism-based, Macaca fascicularis; design: dose 30 mg/kg, route oral; settings: plasma
LLC-PK1 = test: as §4; type: ADME, cell-based, Sus scrofa; settings: llc-pk1
[17] = Cmax in cynomolgus monkey at 30 mg/kg, po; type: ADME, organism-based, Macaca fascicularis; design: dose 30 mg/kg, route oral; settings: in vivo
Mus musculus [18] = test: In vivo inhibition of PDGFR phosphorylation in tumor of nu/nu nude mouse xenografted with rat C6 cells at 10 to 100 mg/kg, po qd after 12 hrs; type: functional, organism-based
Rattus norvegicus [19] = test: as §1; type: ADME, organism-based, Plasma; design: dose 10 mg/kg, route oral; settings: in vivo
Rattus norvegicus [20] = test: as §2; type: ADME, organism-based; settings: in vivo
Rattus norvegicus [21] = test: as §3; type: ADME, organism-based; design: dose 10 mg/kg, route oral; settings: in vivo

T1 sequence (P05622 whole entry): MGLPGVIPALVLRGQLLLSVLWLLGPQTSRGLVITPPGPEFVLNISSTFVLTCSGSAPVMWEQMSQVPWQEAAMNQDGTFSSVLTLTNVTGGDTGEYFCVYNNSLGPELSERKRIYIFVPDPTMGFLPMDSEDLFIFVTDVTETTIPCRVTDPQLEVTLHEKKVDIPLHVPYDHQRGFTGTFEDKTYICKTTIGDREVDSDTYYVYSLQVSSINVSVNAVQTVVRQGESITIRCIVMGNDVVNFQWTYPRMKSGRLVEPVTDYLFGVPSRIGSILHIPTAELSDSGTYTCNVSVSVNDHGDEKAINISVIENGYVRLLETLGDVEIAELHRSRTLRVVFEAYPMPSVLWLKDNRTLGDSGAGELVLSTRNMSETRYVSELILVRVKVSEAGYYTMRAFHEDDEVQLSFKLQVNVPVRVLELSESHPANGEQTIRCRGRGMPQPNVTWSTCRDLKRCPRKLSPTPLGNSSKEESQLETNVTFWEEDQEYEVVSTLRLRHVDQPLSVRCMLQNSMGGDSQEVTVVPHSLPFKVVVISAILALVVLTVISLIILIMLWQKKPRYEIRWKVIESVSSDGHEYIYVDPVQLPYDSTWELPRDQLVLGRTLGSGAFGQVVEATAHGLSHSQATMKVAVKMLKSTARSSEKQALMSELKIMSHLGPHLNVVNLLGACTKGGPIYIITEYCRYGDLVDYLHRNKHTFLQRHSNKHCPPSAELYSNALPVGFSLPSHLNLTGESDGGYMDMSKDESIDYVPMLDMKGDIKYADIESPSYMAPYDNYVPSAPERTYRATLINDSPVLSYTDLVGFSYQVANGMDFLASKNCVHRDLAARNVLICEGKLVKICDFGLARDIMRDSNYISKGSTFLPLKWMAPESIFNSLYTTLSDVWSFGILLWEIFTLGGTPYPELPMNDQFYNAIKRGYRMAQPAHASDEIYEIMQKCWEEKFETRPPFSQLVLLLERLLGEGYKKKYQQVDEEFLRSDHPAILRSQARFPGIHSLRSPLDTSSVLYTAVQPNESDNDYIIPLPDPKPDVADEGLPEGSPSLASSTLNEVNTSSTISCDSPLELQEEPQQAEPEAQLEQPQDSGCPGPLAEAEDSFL
Mast/stem cell growth factor receptor Kit, sequence (P10721 whole entry): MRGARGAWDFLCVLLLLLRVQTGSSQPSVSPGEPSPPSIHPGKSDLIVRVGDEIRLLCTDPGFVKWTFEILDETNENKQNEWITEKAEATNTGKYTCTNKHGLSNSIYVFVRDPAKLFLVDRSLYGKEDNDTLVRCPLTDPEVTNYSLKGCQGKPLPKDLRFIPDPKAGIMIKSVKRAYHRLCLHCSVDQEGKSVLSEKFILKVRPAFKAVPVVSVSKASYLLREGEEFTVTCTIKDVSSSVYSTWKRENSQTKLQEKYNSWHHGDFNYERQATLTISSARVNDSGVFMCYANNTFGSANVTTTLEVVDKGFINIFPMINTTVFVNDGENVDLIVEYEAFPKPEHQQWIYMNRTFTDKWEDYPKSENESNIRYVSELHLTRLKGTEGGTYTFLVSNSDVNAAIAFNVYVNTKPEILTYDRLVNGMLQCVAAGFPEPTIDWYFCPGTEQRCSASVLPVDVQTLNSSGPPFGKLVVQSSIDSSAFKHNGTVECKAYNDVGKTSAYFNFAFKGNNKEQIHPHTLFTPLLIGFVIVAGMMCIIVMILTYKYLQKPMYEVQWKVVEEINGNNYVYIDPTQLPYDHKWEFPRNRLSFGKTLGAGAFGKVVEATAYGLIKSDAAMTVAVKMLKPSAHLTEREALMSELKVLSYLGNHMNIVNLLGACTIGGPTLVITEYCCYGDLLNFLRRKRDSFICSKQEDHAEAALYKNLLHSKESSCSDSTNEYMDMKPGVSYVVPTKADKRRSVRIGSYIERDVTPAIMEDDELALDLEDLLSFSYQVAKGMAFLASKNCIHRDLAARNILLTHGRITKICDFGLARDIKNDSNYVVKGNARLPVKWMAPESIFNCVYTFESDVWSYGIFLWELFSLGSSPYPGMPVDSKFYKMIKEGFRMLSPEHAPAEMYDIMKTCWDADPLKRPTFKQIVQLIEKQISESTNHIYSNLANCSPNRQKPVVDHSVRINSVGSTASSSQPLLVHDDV
Cytochrome P450 2C9, sequence (P11712 whole entry): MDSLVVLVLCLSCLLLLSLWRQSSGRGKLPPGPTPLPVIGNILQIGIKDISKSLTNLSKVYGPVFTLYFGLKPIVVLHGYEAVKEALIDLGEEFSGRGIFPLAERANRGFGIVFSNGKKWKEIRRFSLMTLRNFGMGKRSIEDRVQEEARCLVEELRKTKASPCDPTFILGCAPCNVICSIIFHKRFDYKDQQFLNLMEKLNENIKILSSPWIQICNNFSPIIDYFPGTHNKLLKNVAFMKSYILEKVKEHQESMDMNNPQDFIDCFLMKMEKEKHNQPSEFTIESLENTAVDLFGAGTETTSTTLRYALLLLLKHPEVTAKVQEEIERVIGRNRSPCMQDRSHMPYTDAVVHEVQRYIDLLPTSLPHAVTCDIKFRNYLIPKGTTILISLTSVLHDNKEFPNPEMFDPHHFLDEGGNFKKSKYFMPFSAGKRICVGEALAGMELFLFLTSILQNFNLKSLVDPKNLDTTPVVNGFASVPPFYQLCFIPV
Macrophage colony-stimulating factor 1 receptor, sequence (P07333 whole entry): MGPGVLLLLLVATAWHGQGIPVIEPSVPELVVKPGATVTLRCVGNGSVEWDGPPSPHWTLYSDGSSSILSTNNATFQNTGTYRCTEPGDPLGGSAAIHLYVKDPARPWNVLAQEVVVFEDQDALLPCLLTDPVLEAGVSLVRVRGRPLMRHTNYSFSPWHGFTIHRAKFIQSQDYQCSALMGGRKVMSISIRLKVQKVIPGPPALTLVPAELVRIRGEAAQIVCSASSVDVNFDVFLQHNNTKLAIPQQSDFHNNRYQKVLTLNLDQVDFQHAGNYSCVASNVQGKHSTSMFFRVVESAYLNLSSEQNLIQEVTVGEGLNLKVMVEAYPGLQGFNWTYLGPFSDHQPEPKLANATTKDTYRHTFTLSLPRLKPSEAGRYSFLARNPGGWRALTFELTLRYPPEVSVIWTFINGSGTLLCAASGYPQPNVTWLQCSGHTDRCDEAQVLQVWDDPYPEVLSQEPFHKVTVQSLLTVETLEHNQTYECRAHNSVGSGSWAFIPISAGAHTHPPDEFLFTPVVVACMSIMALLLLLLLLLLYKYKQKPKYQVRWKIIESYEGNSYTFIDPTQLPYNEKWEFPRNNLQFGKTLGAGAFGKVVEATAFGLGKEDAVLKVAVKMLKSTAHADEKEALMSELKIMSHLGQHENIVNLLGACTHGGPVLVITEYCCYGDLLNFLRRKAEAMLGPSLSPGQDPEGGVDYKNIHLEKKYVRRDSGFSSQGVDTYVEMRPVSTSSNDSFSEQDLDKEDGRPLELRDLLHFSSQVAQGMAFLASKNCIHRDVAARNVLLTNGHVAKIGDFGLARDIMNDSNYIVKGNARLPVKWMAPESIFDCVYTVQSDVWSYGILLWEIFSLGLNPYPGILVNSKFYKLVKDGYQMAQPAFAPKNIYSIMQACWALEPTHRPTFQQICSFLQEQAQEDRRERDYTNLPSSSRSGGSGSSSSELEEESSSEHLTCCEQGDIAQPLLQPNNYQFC
Cytochrome P450 2D6, sequence (P10635 whole entry): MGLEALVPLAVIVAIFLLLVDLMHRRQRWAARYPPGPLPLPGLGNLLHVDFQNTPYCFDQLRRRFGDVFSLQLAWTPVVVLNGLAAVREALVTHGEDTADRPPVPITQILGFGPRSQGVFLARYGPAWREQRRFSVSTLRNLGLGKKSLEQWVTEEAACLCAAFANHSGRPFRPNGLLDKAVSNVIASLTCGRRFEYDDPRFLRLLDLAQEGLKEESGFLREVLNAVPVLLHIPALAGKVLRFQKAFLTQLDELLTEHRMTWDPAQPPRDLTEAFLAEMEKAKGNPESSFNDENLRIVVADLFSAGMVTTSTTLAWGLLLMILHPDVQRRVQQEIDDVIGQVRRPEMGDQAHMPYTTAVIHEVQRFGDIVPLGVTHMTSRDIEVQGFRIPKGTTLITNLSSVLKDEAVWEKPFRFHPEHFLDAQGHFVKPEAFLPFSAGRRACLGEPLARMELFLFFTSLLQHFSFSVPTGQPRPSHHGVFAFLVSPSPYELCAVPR
Cytochrome P450 2C19, sequence (P33261 whole entry): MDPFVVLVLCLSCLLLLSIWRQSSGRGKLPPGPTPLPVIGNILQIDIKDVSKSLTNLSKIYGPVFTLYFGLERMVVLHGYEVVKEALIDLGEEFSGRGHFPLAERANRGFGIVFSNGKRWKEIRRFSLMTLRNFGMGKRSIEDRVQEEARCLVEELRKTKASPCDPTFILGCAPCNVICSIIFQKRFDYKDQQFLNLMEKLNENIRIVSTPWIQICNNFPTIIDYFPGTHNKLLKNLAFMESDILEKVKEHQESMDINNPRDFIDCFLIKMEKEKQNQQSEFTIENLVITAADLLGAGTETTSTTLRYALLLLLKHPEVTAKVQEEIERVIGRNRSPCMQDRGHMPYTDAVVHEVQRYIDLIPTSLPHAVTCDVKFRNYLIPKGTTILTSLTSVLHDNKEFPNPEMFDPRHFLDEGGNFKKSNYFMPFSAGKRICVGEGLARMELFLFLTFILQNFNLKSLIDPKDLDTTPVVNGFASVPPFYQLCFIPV
Cytochrome P450 3A4, sequence (P08684 whole entry): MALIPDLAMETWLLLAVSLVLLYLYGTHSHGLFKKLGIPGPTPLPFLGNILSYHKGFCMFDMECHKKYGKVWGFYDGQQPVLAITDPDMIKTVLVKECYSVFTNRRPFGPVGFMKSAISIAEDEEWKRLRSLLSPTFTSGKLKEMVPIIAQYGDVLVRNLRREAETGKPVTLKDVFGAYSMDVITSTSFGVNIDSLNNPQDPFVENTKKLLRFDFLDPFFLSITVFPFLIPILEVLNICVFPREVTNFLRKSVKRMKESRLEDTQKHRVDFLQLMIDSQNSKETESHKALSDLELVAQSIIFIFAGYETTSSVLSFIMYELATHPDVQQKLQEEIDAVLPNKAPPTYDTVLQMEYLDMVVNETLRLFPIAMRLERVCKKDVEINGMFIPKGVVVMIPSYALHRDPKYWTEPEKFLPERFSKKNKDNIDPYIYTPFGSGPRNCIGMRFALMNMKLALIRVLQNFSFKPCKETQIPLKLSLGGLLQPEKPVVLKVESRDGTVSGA

COCCOc1ccn2c(-c3ccc4cccc(O[C@@H]5CN[C@H](C(=O)OC)C5)c4n3)cnc2c1
IC50 [1]: > 1 µM | IC50 [2]: > 1 µM

COCCOc1ccn2c(-c3ccc4cccc(O[C@@H]5CCCNC5)c4n3)cnc2c1
IC50 [2]: 0.072 µM

COCCOc1ccn2c(-c3ccc4cccc(O[C@@H]5CCNC[C@H]5O)c4n3)cnc2c1 (racemic)
IC50 [2]: 0.003 µM

COCCOc1ccn2c(-c3ccc4cccc(OC5CCNCC5)c4n3)cnc2c1
IC50 [1]: > 1 µM | IC50 (Cytochrome P450 2D6): > 10 µM | IC50 (Cytochrome P450 1A2): > 10 µM | IC50 [3]: 0.025 µM | IC50 (Cytochrome P450 2C19): > 10 µM | IC50 (Cytochrome P450 3A4): > 10 µM | IC50 [4]: 0.961 µM | solubility [5]: > 1000 µg/mL | IC50 [2]: 0.003 µM | AUC [6]: 800 ng·h/mL | IC50 (Cytochrome P450 2C9): > 10 µM | recovery (MDR1): 50% | bioavailability [7]: 16% | clearance [8]: 33 mL/min/kg | Cmax [9]: 70 ng/mL | pKa [10]: 9.3 | Papp A→B [11]: 16.3 ×10⁻⁶ cm/s

COCCOc1ccn2c(-c3ccc4cccc(O[C@H]5CN[C@H](C(=O)OC)C5)c4n3)cnc2c1
IC50 [1]: > 1 µM | IC50 [2]: 0.958 µM

COCCOc1ccn2c(-c3ccc4cccc(O[C@@H]5CCNC[C@@H]5F)c4n3)cnc2c1 (relative stereo)
IC50 (Cytochrome P450 2D6): 5.88 µM | IC50 (Cytochrome P450 1A2): > 10 µM | IC50 [3]: 0.025 µM | IC50 (Cytochrome P450 2C19): > 10 µM | IC50 (Cytochrome P450 3A4): > 10 µM | IC50 [4]: > 1 µM | IC50 [2]: 0.004 µM | AUC [6]: 730 ng·h/mL | IC50 (Cytochrome P450 2C9): > 10 µM | recovery (MDR1): 30% | bioavailability [7]: 13% | clearance [8]: 28 mL/min/kg | Cmax [9]: 70 ng/mL | pKa [10]: 7.5 | Papp A→B [11]: 2.7 ×10⁻⁶ cm/s

COCCOc1ccn2c(-c3ccc4cccc(O[C@@H]5CCNC[C@H]5F)c4n3)cnc2c1 [listing 1 of 2 here]
IC50 (Cytochrome P450 2D6): > 10 µM | IC50 (Cytochrome P450 1A2): > 10 µM | IC50 [3]: 0.07 µM | IC50 (Cytochrome P450 2C19): > 10 µM | EC50 (Mus musculus [12]): 0.065 µg/mL (≈ 0.149 µM) | IC50 [4]: 0.43 µM | bioavailability [13]: 6% | IC50 [14]: 3.9 µM | Activity (Rattus norvegicus [15]): Non-toxic | IC50 [2]: 0.003 µM | AUC [16]: 950 ng·h/mL | AUC [6]: 2300 ng·h/mL | IC50 (Cytochrome P450 2C9): > 10 µM | bioavailability [7]: 28% | clearance [8]: 20 mL/min/kg | Cmax [9]: 160 ng/mL | Papp (LLC-PK1): 3.7 ×10⁻⁶ cm/s | Cmax [17]: 190 ng/mL

COCCOc1ccn2c(-c3ccc4cccc(OC5CCN(C)CC5)c4n3)cnc2c1
IC50 [2]: 0.009 µM

COCCOc1ccn2c(-c3ccc4cccc(OCC5CNCCO5)c4n3)cnc2c1 (racemic)
IC50 [1]: > 1 µM | IC50 [2]: 0.16 µM

COCCOc1ccn2c(-c3ccc4cccc(O[C@@H]5CCNC[C@H]5F)c4n3)cnc2c1 [listing 2 of 2 here]
inhibition (Mus musculus [12]): Dose-dependent effect | inhibition (Mus musculus [18]): inactive

COCCOc1ccn2c(-c3ccc4cccc(O[C@@H]5CCNC[C@@H]5O)c4n3)cnc2c1 (racemic)
IC50 [2]: 0.002 µM

COCCOc1ccn2c(-c3ccc4cccc(OCC5CCNCC5)c4n3)cnc2c1
IC50 [1]: > 1 µM | IC50 [2]: 0.034 µM

COCCOc1ccn2c(-c3ccc4cccc(O[C@@H]5CCNC[C@H]5F)c4n3)cnc2c1 (relative stereo)
IC50 (Cytochrome P450 2D6): > 10 µM | IC50 (Cytochrome P450 1A2): > 10 µM | IC50 [3]: 0.063 µM | IC50 (Cytochrome P450 2C19): > 10 µM | IC50 (Cytochrome P450 3A4): > 10 µM | IC50 [4]: 0.682 µM | IC50 [2]: 0.004 µM | AUC (Rattus norvegicus [19]): 2100 ng·h/mL | IC50 (Cytochrome P450 2C9): > 10 µM | recovery (MDR1): 30% | F (Rattus norvegicus [20]): 30% | Cmax (Rattus norvegicus [21]): 120 ng/mL | pKa [10]: 7.4 | Papp A→B [11]: 4.4 ×10⁻⁶ cm/s

COCCOc1ccn2c(-c3ccc4cccc(O[C@H]5CCCNC5)c4n3)cnc2c1
IC50 [2]: 0.005 µM

COCCOc1ccn2c(-c3ccc4cccc(O[C@H]5CCNC[C@@H]5F)c4n3)cnc2c1
IC50 (Cytochrome P450 2D6): > 10 µM | IC50 (Cytochrome P450 1A2): > 10 µM | IC50 [3]: 0.055 µM | IC50 (Cytochrome P450 2C19): > 10 µM | IC50 (Cytochrome P450 3A4): > 10 µM | IC50 [4]: 0.491 µM | IC50 [2]: 0.003 µM | IC50 (Cytochrome P450 2C9): > 10 µM

COCCOc1ccn2c(-c3ccc4cccc(OCCN)c4n3)cnc2c1
IC50 [1]: > 1 µM | IC50 [2]: 0.176 µM

COCCOc1ccn2c(-c3ccc4cccc(O[C@@H]5CNC[C@H]5OC)c4n3)cnc2c1 (racemic)
IC50 [1]: > 1 µM | IC50 [3]: > 1 µM | IC50 [2]: 0.01 µM

COCCOc1ccn2c(-c3ccc4cccc(O[C@H]5CC[C@H](N)CC5)c4n3)cnc2c1
IC50 [1]: > 1 µM | IC50 [2]: 0.028 µM

COCCOc1ccn2c(-c3ccc4cccc(OCC5(F)CCNCC5)c4n3)cnc2c1
IC50 [2]: 0.001 µM

COCCOc1ccn2c(-c3ccc4cccc(OCC5CCNC5)c4n3)cnc2c1 (racemic)
IC50 [3]: 0.029 µM | IC50 [2]: 0.001 µM

COCCOc1ccn2c(-c3ccc4cccc(OCC(C)(C)CN)c4n3)cnc2c1
IC50 [4]: > 1 µM | IC50 [2]: 0.018 µM

COCCOc1ccn2c(-c3ccc4cccc(OCc5cnc[nH]5)c4n3)cnc2c1
IC50 [1]: > 1 µM | IC50 [2]: > 1 µM
